Assay results as given in ChEMBL document CHEMBL1201862, “PubChem BioAssay data set” (2004).
The source made the active and inactive calls.

Legend:
[1] = target: G2/mitotic-specific cyclin-B1 (Homo sapiens, UniProt P14635); experiment: Counterscreen assay for inhibitors of Wee1 degradation: dose response cell-based assay to identify inhibitors of cyclin B degradation. [Related pubchem assays: 1410, 1321 ]; type: functional
Wee1-like protein kinase = Wee1-like protein kinase (Homo sapiens, UniProt P30291); experiment: Dose Response Cell-based Assay for Inhibitors of Wee1 Degradation. [Related pubchem assays: 1410, 1321 ]; type: functional
[2] = target: Epstein-Barr nuclear antigen 1 (Epstein-Barr virus (strain B95-8) (HHV-4) (Human herpesvirus 4), UniProt P03211); experiment: inhibition of EBV nuclear antigen 1 DNA binding – biochemical, fluorescence polarization, 1536-well, dose response (AID 2381); parameters: species or system human gammaherpesvirus 4;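 note: fluorescence polarization of a Cy5 DNA probe bound by EBNA-1 protein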
[3] = target: Lytic switch protein BZLF1 (Epstein-Barr virus (strain B95-8) (HHV-4) (Human herpesvirus 4), UniProt P03206); experiment: inhibition of BZLF1 ZTA DNA binding – biochemical, fluorescence polarization, Epstein-Barr virus, 1536-well, counter-screen for EBNA-1 inhibitor project, dose response (AID 2377); parameters: species or system human gammaherpesvirus 4;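 note: fluorescence polarization of Cy5-labelled ZRE DNA probe bound by purified Zta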
[4] = HEK-293T cell viability reduction – luminescence, B-cell screen hits, cytotoxicity control for BCR NF-kB inhibitor project, dose response (AID 489021); type: functional, cell-based;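 note: HEK-293T cells carrying an NF-kB luciferase reporter; cells exposed to compound for about 14 hours before viability readout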
[5] = target: Serine/threonine-protein phosphatase (Homo sapiens, UniProt Q9BPW0); experiment: Counterscreen for inhibitors of PP1: fluorescence-based biochemical high throughput dose response assay to identify inhibitors of Protein Phosphatase 5 (PP5). [Related pubchem assays: 2034 (Summary (PP5 inhibitors)), 1987 (PP5 inhibitors in singlate), 2235 (PP1 inhibitors in singlate)]
[6] = rise of 2N DNA cells, HeLa – IC50, dose response (AID 1117349); type: functional, cell-based
[7] = glucagon-like peptide-1 release potency in STC-1, concentration-response, half-maximal inhibitory concentration in the STC-1 line (AID 1117345); type: functional, cell-based
[8] = rise of 4N DNA cells, HeLa – IC50, dose response (AID 1117351); type: functional, cell-based
[9] = Potency on glucagon-like peptide 1 release, dose-response in NCI-H716 cell line, half maximal inhibitory concentration (AID 1117344); type: functional, cell-based
[10] = target: Mothers against decapentaplegic homolog 3 (Homo sapiens, UniProt P84022); experiment: inhibitors of SMAD-driven TGF-beta signaling – dose response (AID 715); type: functional
[11] = target: Lysosomal acid glucosylceramidase (Homo sapiens, UniProt P04062); experiment: Dose response cell-based high throughput screening assay to identify enhancers of beta-glucosidase activity. [Related pubchem assays: 784 ]; type: functional
[12] = system: Streptococcus sp. 'group A'; experiment: Streptococcus pyogenes SK(-)GAS viability under kanamycin – luminescence, BacTiterGlo, confirmation, counter-screen for streptokinase expression inhibitor project, dose response (AID 1900); type: functional, organism-based
Streptokinase A = target: T1, Streptokinase A (Streptococcus pyogenes serotype M1, UniProt P10520); experiment: viability-normalized secreted streptokinase activity reduction – plasminogen activation absorbance, OD405, dose response (AID 1914); type: functional, Streptococcus pyogenes M1 GAS;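 note: secreted streptokinase activity via plasminogen activation per viability signal from cell pellet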
T1 sequence (P10520 whole entry): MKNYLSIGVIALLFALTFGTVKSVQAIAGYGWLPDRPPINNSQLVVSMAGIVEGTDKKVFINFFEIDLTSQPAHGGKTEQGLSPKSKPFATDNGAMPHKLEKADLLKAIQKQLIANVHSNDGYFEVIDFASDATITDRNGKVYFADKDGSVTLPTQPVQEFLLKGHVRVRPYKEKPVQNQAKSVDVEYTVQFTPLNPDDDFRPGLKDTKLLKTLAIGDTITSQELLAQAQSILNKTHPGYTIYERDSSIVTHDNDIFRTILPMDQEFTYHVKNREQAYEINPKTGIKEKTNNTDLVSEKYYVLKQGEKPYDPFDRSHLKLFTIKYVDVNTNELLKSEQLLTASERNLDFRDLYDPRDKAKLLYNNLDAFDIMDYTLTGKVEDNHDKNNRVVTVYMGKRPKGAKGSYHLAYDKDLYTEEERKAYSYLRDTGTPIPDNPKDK

Estrogen receptor = target: T2, Estrogen receptor (Homo sapiens, UniProt P03372); experiment: ERα coactivator recruitment enhancers – biochemical, TR-FRET, ERα LBD, dose response (AID 737)
T2 sequence (P03372 whole entry): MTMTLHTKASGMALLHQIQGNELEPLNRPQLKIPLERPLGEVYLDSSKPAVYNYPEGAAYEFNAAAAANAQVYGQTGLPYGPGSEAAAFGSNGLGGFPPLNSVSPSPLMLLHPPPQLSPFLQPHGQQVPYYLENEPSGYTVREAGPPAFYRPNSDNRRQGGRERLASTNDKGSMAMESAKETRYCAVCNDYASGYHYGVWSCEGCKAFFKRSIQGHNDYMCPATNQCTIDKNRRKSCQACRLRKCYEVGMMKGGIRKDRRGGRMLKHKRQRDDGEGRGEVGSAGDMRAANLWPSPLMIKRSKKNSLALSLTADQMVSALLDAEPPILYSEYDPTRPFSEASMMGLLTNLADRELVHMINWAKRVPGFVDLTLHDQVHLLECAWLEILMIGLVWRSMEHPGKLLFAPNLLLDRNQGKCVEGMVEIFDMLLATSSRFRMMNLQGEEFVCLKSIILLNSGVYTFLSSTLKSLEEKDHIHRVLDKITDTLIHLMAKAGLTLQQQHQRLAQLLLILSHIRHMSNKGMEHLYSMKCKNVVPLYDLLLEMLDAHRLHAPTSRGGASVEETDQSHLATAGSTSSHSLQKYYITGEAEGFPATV

Streptococcus = experiment: GAS UMAA2166 growth inhibition – luminescence, BacTiterGlo, counter-screen for streptokinase expression inhibitor project, dose response (AID 1915); type: functional, organism-based;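 note: potency for reduction of bacterial viability or growth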
[13] = A Cell Based Secondary Assay To Explore Cytotoxicity of Compounds that Sensitize Mycobacterium Tuberculosis to Beta-Lactam Antibiotics.; type: functional
HeLa = experiment: Cytotoxicity counterscreen assay for transcriptional activators of heat shock protein 70 (Hsp70). [Related pubchem assays: 1203, 1252 ]; type: functional; conditions: Homo sapiens;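 note: cells exposed to compound for 16 hours before readout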

Chain of Epstein-Barr nuclear antigen 1 (P03211 whole entry): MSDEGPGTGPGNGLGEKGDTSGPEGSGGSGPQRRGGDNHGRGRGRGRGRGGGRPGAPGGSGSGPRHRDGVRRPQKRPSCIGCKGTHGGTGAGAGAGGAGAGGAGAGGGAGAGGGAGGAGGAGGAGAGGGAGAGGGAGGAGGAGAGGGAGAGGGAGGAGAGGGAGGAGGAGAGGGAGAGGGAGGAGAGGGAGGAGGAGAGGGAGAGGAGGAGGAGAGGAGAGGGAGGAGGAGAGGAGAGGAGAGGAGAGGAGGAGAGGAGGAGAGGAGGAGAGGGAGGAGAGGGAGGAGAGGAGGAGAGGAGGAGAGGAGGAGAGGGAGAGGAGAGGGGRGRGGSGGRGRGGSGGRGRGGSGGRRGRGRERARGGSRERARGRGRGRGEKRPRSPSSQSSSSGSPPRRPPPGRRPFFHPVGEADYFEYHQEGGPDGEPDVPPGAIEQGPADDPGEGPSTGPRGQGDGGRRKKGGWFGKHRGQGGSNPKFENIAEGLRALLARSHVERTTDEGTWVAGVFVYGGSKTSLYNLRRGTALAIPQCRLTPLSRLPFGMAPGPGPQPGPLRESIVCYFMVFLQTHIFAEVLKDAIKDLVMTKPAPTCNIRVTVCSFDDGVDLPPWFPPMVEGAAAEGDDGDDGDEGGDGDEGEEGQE
Chain of Lytic switch protein BZLF1 (P03206 whole entry): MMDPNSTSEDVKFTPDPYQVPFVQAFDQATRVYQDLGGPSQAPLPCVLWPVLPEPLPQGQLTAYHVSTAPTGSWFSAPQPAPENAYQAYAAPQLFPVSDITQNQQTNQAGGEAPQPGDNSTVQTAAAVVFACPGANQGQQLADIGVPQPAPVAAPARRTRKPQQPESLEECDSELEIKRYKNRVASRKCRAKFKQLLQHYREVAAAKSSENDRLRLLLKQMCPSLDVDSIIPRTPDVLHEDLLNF
Chain of Lysosomal acid glucosylceramidase (P04062 whole entry): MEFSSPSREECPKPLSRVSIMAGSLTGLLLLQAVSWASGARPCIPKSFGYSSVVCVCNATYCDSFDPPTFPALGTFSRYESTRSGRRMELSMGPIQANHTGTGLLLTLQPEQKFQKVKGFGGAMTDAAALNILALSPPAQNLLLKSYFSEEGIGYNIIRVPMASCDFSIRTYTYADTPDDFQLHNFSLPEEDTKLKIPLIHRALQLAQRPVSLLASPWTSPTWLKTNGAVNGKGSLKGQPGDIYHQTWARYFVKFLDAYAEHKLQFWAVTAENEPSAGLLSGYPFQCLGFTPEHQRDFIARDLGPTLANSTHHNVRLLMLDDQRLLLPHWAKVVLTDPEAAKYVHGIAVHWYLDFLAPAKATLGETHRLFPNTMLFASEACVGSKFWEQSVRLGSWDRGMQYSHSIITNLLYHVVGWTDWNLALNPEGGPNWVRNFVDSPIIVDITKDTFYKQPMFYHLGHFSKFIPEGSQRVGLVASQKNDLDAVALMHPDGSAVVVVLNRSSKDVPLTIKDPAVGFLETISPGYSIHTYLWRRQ
Chain of Mothers against decapentaplegic homolog 3 (P84022 whole entry): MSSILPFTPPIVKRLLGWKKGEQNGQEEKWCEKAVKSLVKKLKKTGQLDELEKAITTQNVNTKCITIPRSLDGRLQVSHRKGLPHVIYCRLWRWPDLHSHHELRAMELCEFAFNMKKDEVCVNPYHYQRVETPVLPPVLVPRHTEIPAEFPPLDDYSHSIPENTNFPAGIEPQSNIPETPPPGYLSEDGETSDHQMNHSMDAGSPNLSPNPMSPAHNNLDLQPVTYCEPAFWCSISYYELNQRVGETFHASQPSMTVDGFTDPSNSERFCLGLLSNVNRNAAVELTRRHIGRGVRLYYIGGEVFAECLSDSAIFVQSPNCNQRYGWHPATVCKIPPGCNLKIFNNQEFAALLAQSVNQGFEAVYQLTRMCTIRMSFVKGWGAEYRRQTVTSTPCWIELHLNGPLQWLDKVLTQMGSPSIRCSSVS
Chain of Wee1-like protein kinase (P30291 whole entry): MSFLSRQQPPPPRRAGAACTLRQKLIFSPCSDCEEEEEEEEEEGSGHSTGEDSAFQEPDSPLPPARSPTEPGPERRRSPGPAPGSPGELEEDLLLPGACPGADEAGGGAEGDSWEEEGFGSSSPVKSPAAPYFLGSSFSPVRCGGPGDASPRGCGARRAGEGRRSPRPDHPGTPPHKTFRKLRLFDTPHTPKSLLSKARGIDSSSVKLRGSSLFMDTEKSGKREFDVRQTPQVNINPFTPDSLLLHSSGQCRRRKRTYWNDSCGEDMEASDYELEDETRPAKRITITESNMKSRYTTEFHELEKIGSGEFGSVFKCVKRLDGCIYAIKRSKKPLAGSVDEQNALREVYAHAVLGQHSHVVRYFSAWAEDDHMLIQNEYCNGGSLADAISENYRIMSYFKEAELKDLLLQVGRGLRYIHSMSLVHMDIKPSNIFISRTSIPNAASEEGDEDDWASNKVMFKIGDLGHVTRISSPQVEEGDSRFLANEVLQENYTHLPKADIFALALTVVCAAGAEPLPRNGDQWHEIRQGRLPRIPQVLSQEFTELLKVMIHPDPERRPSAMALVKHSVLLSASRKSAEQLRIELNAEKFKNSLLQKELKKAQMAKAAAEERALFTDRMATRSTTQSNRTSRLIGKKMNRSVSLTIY
Chain of G2/mitotic-specific cyclin-B1 (P14635 whole entry): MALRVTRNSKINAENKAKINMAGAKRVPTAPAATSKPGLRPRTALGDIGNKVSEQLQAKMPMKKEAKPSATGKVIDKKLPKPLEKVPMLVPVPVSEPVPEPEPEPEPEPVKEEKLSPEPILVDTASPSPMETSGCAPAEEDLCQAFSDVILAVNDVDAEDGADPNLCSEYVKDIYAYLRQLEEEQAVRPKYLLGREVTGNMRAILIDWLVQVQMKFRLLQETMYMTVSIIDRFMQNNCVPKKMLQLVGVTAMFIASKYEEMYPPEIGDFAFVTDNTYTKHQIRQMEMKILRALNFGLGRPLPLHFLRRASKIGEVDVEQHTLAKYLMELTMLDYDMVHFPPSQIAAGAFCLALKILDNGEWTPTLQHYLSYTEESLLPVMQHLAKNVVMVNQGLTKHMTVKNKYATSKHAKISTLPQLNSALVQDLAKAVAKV
Chain of Serine/threonine-protein phosphatase (Q9BPW0 whole entry): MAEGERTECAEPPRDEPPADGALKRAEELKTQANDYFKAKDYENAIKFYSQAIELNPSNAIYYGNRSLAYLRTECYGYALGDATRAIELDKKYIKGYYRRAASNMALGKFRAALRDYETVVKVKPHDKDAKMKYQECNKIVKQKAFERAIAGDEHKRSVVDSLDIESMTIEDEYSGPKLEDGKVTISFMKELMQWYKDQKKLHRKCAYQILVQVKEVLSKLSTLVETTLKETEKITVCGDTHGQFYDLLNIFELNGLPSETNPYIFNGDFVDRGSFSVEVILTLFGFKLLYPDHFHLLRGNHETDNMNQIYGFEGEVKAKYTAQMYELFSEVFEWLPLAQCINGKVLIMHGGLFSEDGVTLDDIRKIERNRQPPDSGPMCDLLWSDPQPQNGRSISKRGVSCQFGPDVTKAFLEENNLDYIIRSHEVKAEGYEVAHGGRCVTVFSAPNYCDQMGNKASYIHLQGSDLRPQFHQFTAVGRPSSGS

In the case of `CCN(CC)c1ccc(/C=N/NC(=O)c2cnccn2)cc1`, the EC50 [1] is reported as > 49.7 µM (not active) and the EC50 (Wee1-like protein kinase) is reported as > 49.7 µM (not active).
With `COc1ccc(C(=O)Nc2nnc(Cc3cccs3)s2)cc1OC` the IC50 [2] was 41.5 µM (not active), the IC50 [3] was > 111 µM (not active) and the IC50 [4] was > 80 µM (inactive).
For `C[C@@]12C(=O)OC(=O)[C@]1(C)C1CCC2O1`, the IC50 [5] was 0.239 µM (active), the IC50 [6] was > 10 µM (inactive) and the IC50 [7] was 13.7 µM (inactive). The IC50 [8] was > 10 µM (inactive) and the IC50 [9] was 6.68 µM (inactive).
In the case of `Cc1cccc(CSc2nc3c(cc2C#N)CCC3)c1`, the IC50 [10] is reported as 18.5 µM (active).
In the case of `COCCCNC(=O)Cn1cc(C(=O)C2CC2)c2ccccc21`, the EC50 [11] is reported as > 50 µM (not active).
For `Cn1nnnc1SCC(=O)Nc1nc(-c2ccccc2)c(-c2ccccc2)o1`, the EC50 [12] was 12.7 µM (active), the EC50 (Streptokinase A) was > 150 µM (not active) and the EC50 (Estrogen receptor) was 22.2 µM (active). For the same compound, the EC50 (Streptococcus) was 26 µM (active).
With `COC(=O)c1c(C)n(-c2ccc(C)cc2)c2ccc(O)cc12` the CC50 [13] was > 40 µM (active).
For `N#Cc1ccc(NC(=O)c2nc(-c3ccccc3)n(-c3ccccc3)n2)cc1`, the CC50 (HeLa) was > 99 µM (not active).
